Results from publication PMC6199744, “Development of Chemical Proteomics for the Folateome and Analysis of the Kinetoplastid Folateome” (ACS Infectious Diseases, 2018).
Read-outs that look alike come from different tables or passages of the source.

Key:
Type in all cases: binding
[1] = molecular target: T1, HeLa cell extract proteins (Homo sapiens, UniProt P63167)
T1 construct: endogenous in cells; host or cells: HeLa cell extract

[2] = molecular target: T2, HeLa cell extract proteins (Homo sapiens, UniProt P16278)
T2 construct: endogenous in cells; host or cells: HeLa cell extract
T2 sequence (P16278 29-677): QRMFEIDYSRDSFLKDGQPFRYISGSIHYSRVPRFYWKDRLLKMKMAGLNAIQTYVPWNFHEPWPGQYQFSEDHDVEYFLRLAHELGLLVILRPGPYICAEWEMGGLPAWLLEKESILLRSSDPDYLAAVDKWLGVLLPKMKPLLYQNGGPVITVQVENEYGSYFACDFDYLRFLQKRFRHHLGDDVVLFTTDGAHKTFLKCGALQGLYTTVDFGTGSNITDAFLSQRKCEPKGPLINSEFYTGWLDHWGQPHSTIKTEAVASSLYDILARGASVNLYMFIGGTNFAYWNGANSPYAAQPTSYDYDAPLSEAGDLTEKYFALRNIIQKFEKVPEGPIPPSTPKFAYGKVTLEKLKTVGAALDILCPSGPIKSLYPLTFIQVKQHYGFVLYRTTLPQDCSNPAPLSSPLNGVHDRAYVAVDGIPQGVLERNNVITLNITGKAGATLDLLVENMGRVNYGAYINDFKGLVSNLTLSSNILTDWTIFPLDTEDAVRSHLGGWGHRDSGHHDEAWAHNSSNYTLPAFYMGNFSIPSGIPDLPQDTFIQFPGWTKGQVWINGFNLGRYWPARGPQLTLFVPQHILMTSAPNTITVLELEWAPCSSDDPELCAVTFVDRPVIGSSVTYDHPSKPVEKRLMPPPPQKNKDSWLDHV

[3] = molecular target: T3, HeLa cell extract proteins (Homo sapiens, UniProt P60981)
T3 construct: endogenous in cells; host or cells: HeLa cell extract
T3 sequence (P60981 1-165): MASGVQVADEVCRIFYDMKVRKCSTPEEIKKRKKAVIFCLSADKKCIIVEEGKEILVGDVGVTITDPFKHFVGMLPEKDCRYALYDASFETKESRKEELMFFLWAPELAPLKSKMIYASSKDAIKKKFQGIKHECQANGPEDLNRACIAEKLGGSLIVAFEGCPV

[4] = molecular target: T4, HeLa cell extract proteins (Homo sapiens, UniProt O95486)
T4 construct: endogenous in cells; host or cells: HeLa cell extract
T4 sequence (O95486 1-1093): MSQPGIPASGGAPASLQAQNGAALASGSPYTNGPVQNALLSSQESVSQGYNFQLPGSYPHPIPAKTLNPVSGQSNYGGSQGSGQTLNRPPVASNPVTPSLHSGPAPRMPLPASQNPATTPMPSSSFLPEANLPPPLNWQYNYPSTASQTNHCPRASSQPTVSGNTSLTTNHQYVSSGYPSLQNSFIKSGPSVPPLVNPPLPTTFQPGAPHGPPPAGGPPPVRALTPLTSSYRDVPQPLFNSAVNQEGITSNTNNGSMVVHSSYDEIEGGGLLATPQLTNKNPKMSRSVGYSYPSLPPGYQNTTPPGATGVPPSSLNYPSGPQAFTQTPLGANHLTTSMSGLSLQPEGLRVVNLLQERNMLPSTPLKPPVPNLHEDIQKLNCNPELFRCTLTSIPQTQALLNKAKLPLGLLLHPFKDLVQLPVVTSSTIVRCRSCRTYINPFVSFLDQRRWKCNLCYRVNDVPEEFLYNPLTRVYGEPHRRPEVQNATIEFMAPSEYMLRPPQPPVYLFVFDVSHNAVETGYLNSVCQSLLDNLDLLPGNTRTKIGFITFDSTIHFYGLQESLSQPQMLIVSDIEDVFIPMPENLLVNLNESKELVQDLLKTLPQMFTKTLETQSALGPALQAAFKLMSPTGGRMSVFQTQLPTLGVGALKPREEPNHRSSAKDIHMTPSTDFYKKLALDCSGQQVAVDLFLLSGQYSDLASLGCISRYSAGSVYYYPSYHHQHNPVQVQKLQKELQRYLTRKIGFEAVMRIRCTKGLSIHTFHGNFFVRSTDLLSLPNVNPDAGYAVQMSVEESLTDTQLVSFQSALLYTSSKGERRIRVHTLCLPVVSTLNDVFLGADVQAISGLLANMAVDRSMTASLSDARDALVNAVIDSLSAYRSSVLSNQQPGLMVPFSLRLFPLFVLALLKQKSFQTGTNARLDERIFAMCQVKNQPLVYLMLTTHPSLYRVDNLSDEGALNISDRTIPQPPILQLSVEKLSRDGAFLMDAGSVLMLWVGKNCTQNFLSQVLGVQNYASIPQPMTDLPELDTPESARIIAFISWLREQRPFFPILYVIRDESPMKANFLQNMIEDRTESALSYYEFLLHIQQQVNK

[5] = molecular target: T5, HeLa cell extract proteins (Homo sapiens, UniProt P13807)
T5 construct: endogenous in cells; host or cells: HeLa cell extract
T5 sequence (P13807 1-737): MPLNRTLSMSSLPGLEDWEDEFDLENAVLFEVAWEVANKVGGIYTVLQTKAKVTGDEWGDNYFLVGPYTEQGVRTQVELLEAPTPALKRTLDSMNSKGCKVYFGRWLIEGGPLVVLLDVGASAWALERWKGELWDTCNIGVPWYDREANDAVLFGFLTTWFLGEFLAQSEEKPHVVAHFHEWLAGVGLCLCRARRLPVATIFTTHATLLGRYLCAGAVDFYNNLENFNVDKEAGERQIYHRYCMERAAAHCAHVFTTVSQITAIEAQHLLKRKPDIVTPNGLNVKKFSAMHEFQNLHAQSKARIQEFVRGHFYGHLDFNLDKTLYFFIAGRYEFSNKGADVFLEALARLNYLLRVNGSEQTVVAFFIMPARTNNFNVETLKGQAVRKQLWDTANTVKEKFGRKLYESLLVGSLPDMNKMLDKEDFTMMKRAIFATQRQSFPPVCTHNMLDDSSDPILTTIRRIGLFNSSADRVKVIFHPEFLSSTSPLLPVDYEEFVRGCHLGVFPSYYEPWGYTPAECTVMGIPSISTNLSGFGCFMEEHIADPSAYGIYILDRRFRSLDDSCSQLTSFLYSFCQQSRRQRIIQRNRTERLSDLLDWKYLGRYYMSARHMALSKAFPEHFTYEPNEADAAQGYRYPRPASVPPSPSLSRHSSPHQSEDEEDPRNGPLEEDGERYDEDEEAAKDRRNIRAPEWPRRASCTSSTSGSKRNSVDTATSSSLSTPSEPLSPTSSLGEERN

T1 sequence (P63167 whole entry): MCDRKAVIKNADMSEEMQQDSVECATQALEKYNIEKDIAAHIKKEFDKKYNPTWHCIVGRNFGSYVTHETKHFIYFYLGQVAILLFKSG

Row | Compound | fold changes relative to vehicle control ([1]; HeLa, captured protein DYNLL1) | fold changes relative to vehicle control ([2]; HeLa, captured protein GLB1) | fold changes relative to vehicle control ([3]; HeLa, protein DSTN) | fold changes relative to vehicle control ([4]; HeLa, protein SEC24A) | fold changes relative to vehicle control ([5]; HeLa, protein GYS1) | fold changes relative to vehicle control ([1]; protein DYNLL1, HeLa) | fold changes relative to vehicle control ([2]; captured protein GLB1, HeLa) | fold changes relative to vehicle control ([3]; HeLa, protein DSTN (DESTRIN.)) [fold] | fold changes relative to vehicle control ([4]; protein SEC24A, HeLa) | fold changes relative to vehicle control ([5]; captured protein GYS1, HeLa) | also measured
1 | Nc1nc2c(c(=O)[nH]1)N(C=O)C(CNc1ccc(C(=O)N[C@@H](CCC(=O)O)C(=O)O)cc1)CN2 (some centres unmarked) [LEU, leucovorin] | 1.05 | 1.01 | 0.96 | 1.02 | 0.97 | – | – | – | – | – | –
2 | Nc1nc2[nH]cc(CCc3ccc(C(=O)N[C@@H](CCC(=O)O)C(=O)O)cc3)c2c(=O)[nH]1 [PTX, pemetrexed] | – | – | – | – | – | – | – | – | – | – | fold changes relative to vehicle control [1]: 1.06; fold changes relative to vehicle control [2]: 0.99; fold changes relative to vehicle control [3]: 1.05; fold changes relative to vehicle control [4]: 1.03; fold changes relative to vehicle control [5]: 0.94
3 | CCCCCCOc1ccc(Cc2cnc(N)nc2N)cc1 [compound 1] | – | – | – | – | – | 1.08 | 0.96 | 1.28 | 1.15 | 0.9 | –
4 | CCCCCCOc1cccc(Cc2cnc(N)nc2N)c1 [compound 2] | – | – | – | – | – | 1.05 | 0.9 | 2.07 | 1.44 | 0.84 | –
5 | Nc1nc2cccc(-c3ccccc3)c2n1Cc1ccc(Cl)c(Cl)c1 [compound 3] | – | – | – | – | – | 0.96 | 0.99 | 1.09 | 1.03 | 0.93 | –
6 | NCCOCCOCC(=O)Nc1nc2ncc(CNc3ccc(C(=O)NC(CCC(=O)O)C(=O)O)cc3)nc2c(=O)[nH]1 (centres unmarked) [compound 6] | 1.14 | 0.99 | 1.16 | 1.03 | 0.98 | – | – | – | – | – | –
7 | NCCCNc1ccc(C(=O)NC(CCC(=O)O)C(=O)O)cc1 (centres unmarked) [compound 7] | 1.18 | 1.07 | 0.91 | 1.01 | 0.98 | – | – | – | – | – | –
